≈ marks a conversion by molar mass, not a printed value. Calls of active or inactive are those of the source. The calls are words filed in the database; no cut-off is given here. Where a SMILES comes first, the peptide text is derived from it. Bridges are numbered along the chain shown (N, C = ends). [ ]: non-standard residue; d: D form. The star is where a group is joined. X1 = CC[C@H](C)CCCCC(=O)*; Dab = NCC[C@H](N)C(=O)O
Assays:
Cell membrane [1] = experiment: Induction of cytoplasmic membrane depolarization in […] assessed as increase in fluorescence intensity at 1 to 4 times MIC measured after 1 min by DiSC3-5 dye based fluorescence method; format: subcellular
[2] = Acute toxicity in Kunming mouse assessed as increased interalveolar space at 25 mg/kg, ip by H and E staining based analysis; format: organism-based; conditions: in vivo
Staphylococcus aureus [3] = experiment: Antimicrobial activity against Staphylococcus aureus ATCC 25923 assessed as reduction of bacterial growth incubated for 18 hrs by CLSI protocol based broth microdilution method; format: functional
[4] = test system: Staphylococcus epidermidis; experiment: Antimicrobial activity against Staphylococcus epidermidis ATCC 12228 assessed as reduction of bacterial growth incubated for 18 hrs by CLSI protocol based broth microdilution method; format: functional
Enterococcus faecalis = experiment: Antimicrobial activity against Enterococcus faecalis ATCC 29212 assessed as reduction of bacterial growth incubated for 18 hrs by CLSI protocol based broth microdilution method; format: functional
Klebsiella pneumoniae = experiment: Antimicrobial activity against Klebsiella pneumoniae ATCC 700603 assessed as reduction of bacterial growth incubated for 18 hrs by CLSI protocol based broth microdilution method; format: functional
Pseudomonas aeruginosa = experiment: Antimicrobial activity against Pseudomonas aeruginosa ATCC 27853 assessed as reduction of bacterial growth incubated for 18 hrs by CLSI protocol based broth microdilution method; format: functional
[5] = Acute toxicity in Kunming mouse assessed as pulmonary congestion at 25 mg/kg, ip by H and E staining based analysis; format: organism-based; conditions: in vivo
Staphylococcus aureus [6] = experiment: Synergistic antibacterial activity against rifampicin-resistant Staphylococcus aureus ATCC 25923 assessed as fractional inhibitory concentration index incubated for 18 hrs in presence of rifampicin by checker board assay; format: functional
Cell membrane [7] = experiment: Induction of inner membrane permeabilization in Escherichia coli ML-35 ATCC 43587 at 1 to 4 times MIC by ONPG based assay; conditions: DDE = dose-dependent effect
Erythrocyte = experiment: Hemolytic activity in mouse red blood cells assessed as release of hemoglobin incubated for 1 hr by microplate reader method; format: toxicity, cell-based
Escherichia coli [8] = experiment: Antimicrobial activity against Escherichia coli ATCC 25922 assessed as reduction of bacterial growth incubated for 18 hrs by CLSI protocol based broth microdilution method; format: functional
[9] = Cytotoxicity against human HK-2 cells assessed as reduction in cell viability incubated for 1 hr by resazurin based microplate reader method; format: toxicity
[10] = Acute toxicity in Kunming mouse assessed as respiratory depression in lungs by measuring mortality at 19 to 30 mg/kg, ip within 1 hr; format: organism-based; conditions: in vivo, dose 19-30 mg/kg
[11] = Acute toxicity in Kunming mouse assessed as swollen kidney cells at 25 mg/kg, ip by H and E staining based analysis; format: organism-based; conditions: in vivo
Bacillus subtilis = experiment: Antimicrobial activity against Bacillus subtilis ATCC 23857 assessed as reduction of bacterial growth incubated for 18 hrs by CLSI protocol based broth microdilution method; format: functional
Escherichia coli [12] = experiment: Synergistic antibacterial activity against kanamycin-resisitant Escherichia coli ATCC 25922 assessed as fractional inhibitory concentration index incubated for 18 hrs in presence of kanamycin by checker board assay; format: functional
Escherichia coli [13] = experiment: Synergistic antibacterial activity against rifampicin-resistant Escherichia coli ATCC 25922 assessed as fractional inhibitory concentration index incubated for 18 hrs in presence of rifampicin by checker board assay; format: functional
Escherichia coli [14] = experiment: Antimicrobial activity against Escherichia coli ATCC 25922 assessed as breakage of cell membrane measured after 4 hrs by SEM analysis; format: functional, organism-based
Lipopolysaccharide (LPS) = experiment: Binding affinity to LPS (unknown origin) assessed as reduction in bactericidal activity against Escherichia coli ATCC 25922 at 2 times MIC incubated for 2 hrs in presence of 32 ug/ml of LPS by competitive binding assay
Escherichia coli [15] = experiment: Antimicrobial activity against Escherichia coli ATCC 25922 assessed as swollen cell membrane measured after 0.5 to 2 hrs by SEM analysis; format: functional, organism-based; conditions: time 0.5-2 hrs
Escherichia coli [16] = experiment: Synergistic antibacterial activity against meropenem-resistant Escherichia coli ATCC 25922 assessed as fractional inhibitory concentration index incubated for 18 hrs in presence of meropenem by checker board assay; format: functional
Cell membrane [17] = experiment: Induction of cytoplasmic membrane depolarization in Pseudomonas aeruginosa ATCC 27853 assessed as increase in fluorescence intensity at 1 to 4 times MIC measured after 1 min by DiSC3-5 dye based fluorescence method; format: subcellular
Staphylococcus aureus [18] = experiment: Antibacterial activity against Staphylococcus aureus ATCC 25923 infected in BALB/c mouse assessed as reduction in bacterial load in lung at 5 to 10 mg/kg, ip measured after 4 to 12 hrs (reference value: 5.6 x 10^6 CFU/g); format: functional; conditions: dose 5-10 mg/kg, time 4-12 hrs
[19] = Acute toxicity in Kunming mouse assessed as distortion of alveolar morphology at 25 mg/kg, ip by H and E staining based analysis; format: organism-based; conditions: in vivo
[20] = Acute toxicity in ip dosed Kunming mouse assessed as lethal dose; format: organism-based; conditions: in vivo
Staphylococcus aureus [21] = experiment: Bactericidal activity against Staphylococcus aureus ATCC 25923 assessed as time required to kill bacteria at 2 times MIC by time-killing assay; format: functional
Staphylococcus aureus [22] = experiment: Induction of drug resistance in Staphylococcus aureus ATCC 25923 assessed as increase in MIC after 10 passages by CLSI protocol based broth microdilution method; format: functional
Cell membrane [23] = experiment: Induction of cytoplasmic membrane depolarization in Staphylococcus aureus ATCC 25923 assessed as increase in fluorescence intensity at 4 times MIC measured after 1 min by DiSC3-5 dye based fluorescence method; format: subcellular

In the case of `CC[C@H](C)CCCCC(=O)N[C@@H](CCN)C(=O)N[C@H](C(=O)N[C@@H](CCN)C(=O)N[C@H]1CCNC(=O)[C@H]([C@@H](C)O)NC(=O)[C@H](CCN)NC(=O)[C@H](CCN)NC(=O)[C@H](CC(C)C)NC(=O)[C@@H](Cc2ccccc2)NC(=O)[C@H](CCN)NC1=O)[C@@H](C)O` (X1-[Dab]T[Dab][Dab][Dab][dF]L[Dab][Dab]T; lactam 4-C), the Activity (Cell membrane [1]) is reported as “Active”, the Activity [2] is reported as “Toxic” and the MIC (Staphylococcus aureus [3]) is reported as 16 µM (≈ 19.3 µg/mL). For the same compound, the MIC [4] was 16 µM (≈ 19.3 µg/mL), the MIC (Enterococcus faecalis) was 128 µM (≈ 154 µg/mL) and the MIC (Klebsiella pneumoniae) was 4 µM (≈ 4.81 µg/mL). For the same compound, the MIC (Pseudomonas aeruginosa) was 2 µM (≈ 2.41 µg/mL), the Activity [5] was “Toxic” and the “fractional inhibitory concentration index (FICI)” value (Staphylococcus aureus [6]) was 0.75. For the same compound, the Activity (Cell membrane [7]) was “Dde”, the HC10 (Erythrocyte) was over 256 µM and the MIC (Escherichia coli [8]) was 4 µM (≈ 4.81 µg/mL). For the same compound, the CC50 at 1 h [9] was over 128 µM, the Activity [10] was “Toxic” and the Activity [11] was “Toxic”. For the same compound, the MIC (Bacillus subtilis) was 4 µM (≈ 4.81 µg/mL), the “fractional inhibitory concentration index (FICI)” value (Escherichia coli [12]) was 0.25 and the “fractional inhibitory concentration index (FICI)” value (Escherichia coli [13]) was 0.3125. For the same compound, the Activity (Escherichia coli [14]) was “Active”, the Activity (Lipopolysaccharide (LPS)) was “Active” and the Activity (Escherichia coli [15]) was “Active”. The “fractional inhibitory concentration index (FICI)” value (Escherichia coli [16]) was 1.25, the Activity (Cell membrane [17]) was “Active” and the Activity (Staphylococcus aureus [18]) was 0 CFU/g. The Activity [19] was “Toxic”, the LD50 [20] was 25.5 mg/kg and the Time (Staphylococcus aureus [21]) was 6 h. For the same compound, the Activity (Staphylococcus aureus [22]) was “Active” and the Activity (Cell membrane [23]) was “Active”.

Source: ChEMBL document CHEMBL5154808, “Novel β-Hairpin Antimicrobial Peptides Containing the β-Turn Sequence of -RRRF- Having High Cell Selectivity and Low Incidence of Drug Resistance” (J Med Chem, 2022)
